From US20150051252A1, “COMPOUNDS FOR USE IN THE TREATMENT OF NEUROBLASTOMA, EWING'S SARCOMA OR RHABDOMYOSARCOMA” (priority 2012, published 2015)

Key:
Assay type in all cases: cell-based
[1] = test system: SK-N-AS neuroblastoma cell line; experiment: Cell line sensitivity (Cell Titer Glo), SK-N-AS; settings: SK-N-AS cells, 72 h, maximum observed response; 0% = vehicle, −100% = MG132 1 μM
Description: (§1) Cell culture: Cell lines are obtained from commercial sources including ATCC and DSMZ. All cell lines tested are cultured in RPMI or DMEM plus 10% FBS (Invitrogen) as supplier recommended. Cell lines are cultured in T-175 or 3 layer T-175 “triple” flasks using standard tissue culture techniques that are frequently carried out with a robot (CompacT—The Automation Partnership). All cell lines are thawed from frozen stock, grown at 37 C 5% CO2. Adherent lines are dislodged using TrypLE (Invitrogen), are expanded through at least 1 passage of 1:3 dilution and usually 2 to 3 passages before they are added to assay micro-titer plates. Cell count and viability are measured using Trypan dye exclusion with a ViCell counter (Beckman-Coulture). All cell lines are tested for and shown to be free of Mycoplasma using a PCR detection (http://www.radil.missouri.edu). […]
(§2) All assays are automated and are performed with an ultra-high throughput screening system built by the Genomics Institute of the Novartis Research Foundation (GNF Systems; http://www.gnfsystems.com/). […] Cell Titer Glo (Promega), which measures the amount of ATP in the well, is added and luminescence is read on a ViewLux plate reader (Perkin Elmer). […]

[2] = test system: TC-71 Ewing's Sarcoma cell line; experiment: Cell line sensitivity (Cell Titer Glo), TC-71; settings: TC-71 cells, 72 h
Description: as §1, §2

[3] = test system: RD rhabdomyosarcoma cell line; experiment: Cell line sensitivity (Cell Titer Glo), RD; settings: RD cells, 72 h
Description: as §1, §2

[4] = test system: SIMA neuroblastoma cell line; experiment: Cell line sensitivity (Cell Titer Glo), SIMA; settings: SIMA cells, 72 h, maximum observed response; 0% = vehicle, −100% = MG132 1 μM
Description: as §1, §2

[5] = test system: SK-N-SH neuroblastoma cell line; experiment: Cell line sensitivity (Cell Titer Glo), SK-N-SH; settings: SK-N-SH cells, 72 h
Description: as §1, §2

[6] = test system: TE 617.T rhabdomyosarcoma cell line; experiment: Cell line sensitivity (Cell Titer Glo), TE 617.T; settings: TE 617.T cells, 72 h
Description: as §1, §2

[7] = test system: KELLY neuroblastoma cell line; experiment: Cell line sensitivity (Cell Titer Glo), KELLY; settings: KELLY cells, 72 h, maximum observed response; 0% = vehicle, −100% = MG132 1 μM
Description: as §1, §2

[8] = test system: SJRH30 rhabdomyosarcoma cell line; experiment: Cell line sensitivity (Cell Titer Glo), SJRH30; settings: SJRH30 cells, 72 h
Description: as §1, §2

[9] = test system: KYM-1 rhabdomyosarcoma cell line; experiment: Cell line sensitivity (Cell Titer Glo), KYM-1; settings: KYM-1 cells, 72 h, maximum observed response; 0% = vehicle, −100% = MG132 1 μM
Description: as §1, §2

[10] = test system: CHP-212 neuroblastoma cell line; experiment: Cell line sensitivity (Cell Titer Glo), CHP-212; settings: CHP-212 cells, 72 h
Description: as §1, §2

[11] = test system: KP-N-SI9s neuroblastoma cell line; experiment: Cell line sensitivity (Cell Titer Glo), KP-N-SI9s; settings: 72 h
Description: as §1, §2

[12] = test system: TE 125.T rhabdomyosarcoma cell line; experiment: Cell line sensitivity (Cell Titer Glo), TE 125.T; settings: TE 125.T cells, 72 h, maximum observed response; 0% = vehicle, −100% = MG132 1 μM
Description: as §1, §2

[13] = test system: A-673 rhabdomyosarcoma cell line; experiment: Cell line sensitivity (Cell Titer Glo), A-673; settings: A-673 cells, 72 h
Description: as §1, §2

[14] = test system: IMR-32 neuroblastoma cell line; experiment: Cell line sensitivity (Cell Titer Glo), IMR-32; settings: IMR-32 cells, 72 h, maximum observed response; 0% = vehicle, −100% = MG132 1 μM
Description: as §1, §2

[15] = test system: SK-ES-1 Ewing's Sarcoma cell line; experiment: Cell line sensitivity (Cell Titer Glo), SK-ES-1; settings: SK-ES-1 cells, 72 h
Description: as §1, §2

[16] = test system: G-402 (Leiomyoblastoma) cell line; experiment: Cell line sensitivity (Cell Titer Glo), G-402; settings: G-402 cells, 72 h, maximum observed response; 0% = vehicle, −100% = MG132 1 μM
Description: as §1, §2

[17] = test system: MHH-ES-1 Ewing's Sarcoma cell line; experiment: Cell line sensitivity (Cell Titer Glo), MHH-ES-1; settings: 72 h
Description: as §1, §2

[18] = test system: Hs 822.T Ewing's Sarcoma cell line; experiment: Cell line sensitivity (Cell Titer Glo), Hs 822.T; settings: Hs 822.T cells, 72 h
Description: as §1, §2

[19] = test system: RH-41 rhabdomyosarcoma cell line; experiment: Cell line sensitivity (Cell Titer Glo), RH-41; settings: RH-41 cells, 72 h
Description: as §1, §2

[20] = test system: SK-N-DZ neuroblastoma cell line; experiment: Cell line sensitivity (Cell Titer Glo), SK-N-DZ; settings: SK-N-DZ cells, 72 h
Description: as §1, §2

[21] = test system: SK-N-FI neuroblastoma cell line; experiment: Cell line sensitivity (Cell Titer Glo), SK-N-FI; settings: SK-N-FI cells, 72 h
Description: as §1, §2

[22] = test system: Hs 729 rhabdomyosarcoma cell line; experiment: Cell line sensitivity (Cell Titer Glo), Hs 729; settings: Hs 729 cells, 72 h, maximum observed response; 0% = vehicle, −100% = MG132 1 μM
Description: as §1, §2

[23] = test system: G-401 (Rhabdoid) cell line; experiment: Cell line sensitivity (Cell Titer Glo), G-401; settings: G-401 cells, 72 h, maximum observed response; 0% = vehicle, −100% = MG132 1 μM
Description: as §1, §2

[24] = test system: SK-N-BE(2) neuroblastoma cell line; experiment: Cell line sensitivity (Cell Titer Glo), SK-N-BE(2); settings: SK-N-BE(2) cells, 72 h, maximum observed response; 0% = vehicle, −100% = MG132 1 μM
Description: as §1, §2

[25] = maximum observed response, 0% = vehicle, −100% = MG132 1 μM
[26] = Cell Titer Glo, inflection point, 0.0025 to 8 uM, read-out: COMPOUND I EC50

In the case of `Cc1nc(NC(=O)N2CCC[C@H]2C(N)=O)sc1-c1ccnc(C(C)(C)C(F)(F)F)c1` [COMPOUND I, (S)-Pyrrolidine-1,2-dicarboxylic acid 2-amide 1-({4-methyl-5-[2-(2,2,2-trifluoro-1,1-dimethyl-ethyl)-pyridin-4-yl]-thiazol-2-yl}-amide)], the “COMPOUND I Amax (% inhibition)” value [1] is reported as −11.6%, the “COMPOUND I Amax (% inhibition)” value [2, 25] is reported as −5.4% and the EC50 ([2]; read-out: COMPOUND I EC50, Cell Titer Glo, inflection point, 0.0025 to 8 uM, heading: COMPOUND I EC50) is reported as greater than 8 µM. For the same molecule, the EC50 [3, 26] was 3.3 µM, the “COMPOUND I Amax (% inhibition)” value [3, 25] was −43.2% and the “COMPOUND I Amax (% inhibition)” value [4] was −42.0%. The EC50 [5, 26] was 1.6 µM, the “COMPOUND I Amax (% inhibition)” value [5, 25] was −44.6% and the EC50 [6, 26] was 3.8 µM. The “COMPOUND I Amax (% inhibition)” value [6, 25] was −55.2%, the “COMPOUND I Amax (% inhibition)” value [7] was −4.3% and the EC50 [8, 26] was 2.8 µM. For the same molecule, the “COMPOUND I Amax (% inhibition)” value [8, 25] was −56.5%, the “COMPOUND I Amax (% inhibition)” value [9] was −38.0% and the EC50 [10, 26] was 0.8 µM. The “COMPOUND I Amax (% inhibition)” value [10, 25] was −30.9%, the EC50 ([11]; KP-N-SI9s cells (KRAS mutation), Cell Titer Glo, inflection point, 0.0025 to 8 uM, read-out: COMPOUND I EC50) was 0.6 µM and the “COMPOUND I Amax (% inhibition)” value ([11]; KP-N-SI9s cells, maximum observed response, 0% = vehicle, −100% = MG132 1 μM) was −54.2%. The “COMPOUND I Amax (% inhibition)” value [12] was −49.8%, the EC50 [13, 26] was 5.7 µM and the “COMPOUND I Amax (% inhibition)” value [13, 25] was −56.2%. For the same molecule, the “COMPOUND I Amax (% inhibition)” value [14] was −8.9%, the EC50 [15, 26] was 0.5 µM and the “COMPOUND I Amax (% inhibition)” value [15, 25] was −51.7%. The “COMPOUND I Amax (% inhibition)” value [16] was −26.4%, the EC50 ([17]; MHH-ES-1 cells (amplified PIK3CA), Cell Titer Glo, inflection point, 0.0025 to 8 uM, read-out: COMPOUND I EC50) was 2.7 µM and the “COMPOUND I Amax (% inhibition)” value ([17]; MHH-ES-1 cells, maximum observed response, 0% = vehicle, −100% = MG132 1 μM) was −79.2%. For the same molecule, the EC50 [18, 26] was 1.5 µM, the “COMPOUND I Amax (% inhibition)” value [18, 25] was −31.6% and the EC50 [19, 26] was 1.6 µM. The “COMPOUND I Amax (% inhibition)” value [19, 25] was −85.4%, the EC50 [20, 26] was 5.3 µM and the “COMPOUND I Amax (% inhibition)” value [20, 25] was −42.4%. The EC50 [21, 26] was 6.1 µM, the “COMPOUND I Amax (% inhibition)” value [21, 25] was −55.6% and the “COMPOUND I Amax (% inhibition)” value [22] was −10.2%. The “COMPOUND I Amax (% inhibition)” value [23] was −46.6% and the “COMPOUND I Amax (% inhibition)” value [24] was −8.7%.
